Assay results reported in ChEMBL document CHEMBL1201862, “PubChem BioAssay data set” (2004).
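In this assay, cells in 96-well plates receive the compound at five concentrations for 48 hours. Endpoints are linearly interpolated between the surrounding concentrations. Abbreviation: GI50, concentration required for 50% inhibition of growth.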 Calls of active or inactive are those of the source. Rule as the data show it: active = GI50 up to about 1.1 µM and inactive = higher.

Columns and labels:
Assay in all cases: NCI-60 cell line screen, 48 h
786-0 = tested on: 786-0
A498 = tested on: A498
ACHN = tested on: ACHN
BT-549 = tested on: BT-549
CAKI-1 = tested on: CAKI-1
COLO 205 = tested on: COLO 205
DU-145 = tested on: DU-145
EKVX = tested on: EKVX
HCC 2998 = tested on: HCC 2998
HCT-116 = tested on: HCT-116
HCT-15 = tested on: HCT-15
HL-60 = tested on: HL-60
HOP-62 = tested on: HOP-62
HT-29 = tested on: HT-29
Hs-578T = tested on: Hs-578T
IGROV-1 = tested on: IGROV-1
K562 = tested on: K562
KM12 = tested on: KM12
LOX IMVI = tested on: LOX IMVI
MCF7 = tested on: MCF7
MDA-MB-231 = tested on: MDA-MB-231
MDA-MB-435 = tested on: MDA-MB-435
MDA-N = tested on: MDA-N
MOLT-4 = tested on: MOLT-4
Malme-3M = tested on: Malme-3M
NCI-H226 = tested on: NCI-H226
NCI-H23 = tested on: NCI-H23
NCI-H460 = tested on: NCI-H460
NCI-H522 = tested on: NCI-H522
NCI/ADR-RES = tested on: NCI/ADR-RES
OVCAR-3 = tested on: OVCAR-3
OVCAR-4 = tested on: OVCAR-4
OVCAR-5 = tested on: OVCAR-5
OVCAR-8 = tested on: OVCAR-8
PC-3 = tested on: PC-3
RPMI-8226 = tested on: RPMI-8226
RXF 393 = tested on: RXF 393
SF-268 = tested on: SF-268
SF-295 = tested on: SF-295
SK-MEL-28 = tested on: SK-MEL-28
SK-MEL-2 = tested on: SK-MEL-2
SK-MEL-5 = tested on: SK-MEL-5
SN12C = tested on: SN12C
SNB-19 = tested on: SNB-19
SNB-75 = tested on: SNB-75
SR = tested on: SR
SW-620 = tested on: SW-620
T47D = tested on: T47D
TK-10 = tested on: TK-10
U-251 = tested on: U-251
UACC-257 = tested on: UACC-257
UACC-62 = tested on: UACC-62
UO-31 = tested on: UO-31
A549 = tested on: A549
CCRF-CEM = tested on: CCRF-CEM
M14 = tested on: M14
SF-539 = tested on: SF-539
SK-OV-3 = tested on: SK-OV-3

O=C1NC(=S)N/C1=C\c1ccc(Sc2ccccc2C(=O)O)s1
GI50 (786-0): > 100 µM (inactive)
GI50 (A498): > 100 µM (inactive)
GI50 (ACHN): > 100 µM (inactive)
GI50 (BT-549): > 100 µM (inactive)
GI50 (CAKI-1): 70.3 µM (inactive)
GI50 (COLO 205): > 100 µM (inactive)
GI50 (DU-145): > 100 µM (inactive)
GI50 (EKVX): > 100 µM (inactive)
GI50 (HCC 2998): > 100 µM (inactive)
GI50 (HCT-116): > 100 µM (inactive)
GI50 (HCT-15): > 100 µM
GI50 (HL-60): 44.8 µM (inactive)
GI50 (HOP-62): > 100 µM (inactive)
GI50 (HT-29): > 100 µM (inactive)
GI50 (Hs-578T): > 100 µM (inactive)
GI50 (IGROV-1): > 100 µM (inactive)
GI50 (K562): 93.5 µM (inactive)
GI50 (KM12): > 100 µM (inactive)
GI50 (LOX IMVI): > 100 µM (inactive)
GI50 (MCF7): > 100 µM (inactive)
GI50 (MDA-MB-231): > 100 µM (inactive)
GI50 (MDA-MB-435): > 100 µM (inactive)
GI50 (MDA-N): > 100 µM (inactive)
GI50 (MOLT-4): > 100 µM (inactive)
GI50 (Malme-3M): > 100 µM (inactive)
GI50 (NCI-H226): > 100 µM (inactive)
GI50 (NCI-H23): > 100 µM (inactive)
GI50 (NCI-H460): > 100 µM (inactive)
GI50 (NCI-H522): 22.1 µM (inactive)
GI50 (NCI/ADR-RES): > 100 µM (inactive)
GI50 (OVCAR-3): > 100 µM (inactive)
GI50 (OVCAR-4): > 100 µM (inactive)
GI50 (OVCAR-5): > 100 µM (inactive)
GI50 (OVCAR-8): > 100 µM (inactive)
GI50 (PC-3): > 100 µM (inactive)
GI50 (RPMI-8226): > 100 µM (inactive)
GI50 (RXF 393): > 100 µM (inactive)
GI50 (SF-268): > 100 µM (inactive)
GI50 (SF-295): > 100 µM (inactive)
GI50 (SK-MEL-28): > 100 µM (inactive)
GI50 (SK-MEL-2): > 100 µM (inactive)
GI50 (SK-MEL-5): > 100 µM (inactive)
GI50 (SN12C): > 100 µM (inactive)
GI50 (SNB-19): > 100 µM (inactive)
GI50 (SNB-75): > 100 µM (inactive)
GI50 (SR): > 100 µM (inactive)
GI50 (SW-620): > 100 µM (inactive)
GI50 (T47D): > 100 µM (inactive)
GI50 (TK-10): > 100 µM (inactive)
GI50 (U-251): > 100 µM (inactive)
GI50 (UACC-257): > 100 µM (inactive)
GI50 (UACC-62): 85.3 µM (inactive)
GI50 (UO-31): > 100 µM (inactive)

O=c1[nH][nH]c(=O)n1CCCCCCn1c(=O)[nH][nH]c1=O
GI50 (786-0): > 100 µM (inactive)
GI50 (A498): > 100 µM (inactive)
GI50 (A549): > 100 µM (inactive)
GI50 (BT-549): > 100 µM (inactive)
GI50 (CAKI-1): > 100 µM (inactive)
GI50 (CCRF-CEM): > 100 µM (inactive)
GI50 (COLO 205): > 100 µM (inactive)
GI50 (DU-145): > 100 µM (inactive)
GI50 (EKVX): > 100 µM (inactive)
GI50 (HCC 2998): > 100 µM (inactive)
GI50 (HCT-116): > 100 µM (inactive)
GI50 (HCT-15): > 100 µM
GI50 (HL-60): > 100 µM (inactive)
GI50 (HT-29): > 100 µM (inactive)
GI50 (Hs-578T): > 100 µM (inactive)
GI50 (K562): > 100 µM (inactive)
GI50 (KM12): > 100 µM (inactive)
GI50 (LOX IMVI): > 100 µM (inactive)
GI50 (M14): > 100 µM (inactive)
GI50 (MCF7): > 100 µM (inactive)
GI50 (MDA-MB-231): > 100 µM (inactive)
GI50 (MDA-MB-435): > 100 µM (inactive)
GI50 (MDA-N): > 100 µM (inactive)
GI50 (MOLT-4): > 100 µM (inactive)
GI50 (Malme-3M): > 100 µM (inactive)
GI50 (NCI-H226): > 100 µM (inactive)
GI50 (NCI-H23): > 100 µM (inactive)
GI50 (NCI-H460): > 100 µM (inactive)
GI50 (NCI-H522): > 100 µM (inactive)
GI50 (NCI/ADR-RES): > 100 µM (inactive)
GI50 (OVCAR-3): > 100 µM (inactive)
GI50 (OVCAR-4): > 100 µM (inactive)
GI50 (OVCAR-5): > 100 µM (inactive)
GI50 (OVCAR-8): > 100 µM (inactive)
GI50 (PC-3): > 100 µM (inactive)
GI50 (RPMI-8226): > 100 µM (inactive)
GI50 (RXF 393): > 100 µM (inactive)
GI50 (SF-268): > 100 µM (inactive)
GI50 (SF-539): > 100 µM (inactive)
GI50 (SK-MEL-28): > 100 µM (inactive)
GI50 (SK-MEL-2): > 100 µM (inactive)
GI50 (SK-MEL-5): > 100 µM (inactive)
GI50 (SK-OV-3): > 100 µM (inactive)
GI50 (SN12C): > 100 µM (inactive)
GI50 (SNB-19): > 100 µM (inactive)
GI50 (SNB-75): > 100 µM (inactive)
GI50 (SR): > 100 µM (inactive)
GI50 (SW-620): > 100 µM (inactive)
GI50 (T47D): > 100 µM (inactive)
GI50 (TK-10): > 100 µM (inactive)
GI50 (U-251): > 100 µM (inactive)
GI50 (UACC-257): > 100 µM (inactive)
GI50 (UACC-62): > 100 µM (inactive)
GI50 (UO-31): > 100 µM (inactive)
